Results taken from US10849896B2, “Sortilin-binding small molecules for increasing glucose uptake” (University of South Florida, priority 2015, dated 2020).

What was measured:
Assay type in all cases: cell-based, mouse
sortilin mRNA = assay: RT-PCR for sortilin mRNA in treated 3T3L1 cells; conditions: 500 nM, added day 3 of differentiation, maintained to day 8; total RNA
Protocol: (§1) 2-(3,5-Dioxo-4-azatricyclo[5.2.1.0˜2,6˜]dec-8-en-4-yl)-4-methylpentanoic acid and 4-[(3,4-dichlorophenyl)amino]-3-(3-methylbenzyl)-4-oxobutanoic acid were used to treat 3T3L1 cells at 500 nM concentration on day 3 of differentiation and maintained in culture up to day 8 when the cells mature into adipocytes with well-developed lipid bodies. Whole cell lysate was isolated and western blot analysis was performed using anti-sortilin antibody. […] To determine the compounds effect sortilin gene expression, 3T3L1 cells were treated as above and total RNA was isolated. RT-PCR was performed using sortilin primers.

sortilin = assay: Western blot for sortilin expression in treated 3T3L1 cells; conditions: 500 nM, added day 3 of differentiation, maintained to day 8; whole cell lysate
Protocol: as §1

3T3L1 cells = assay: [3-H]-deoxy-2-D-Glucose uptake in 3T3L1 adipocytes; conditions: 500 nM; for glucose uptake: added day 3 of differentiation, maintained to day 8, without insulin; for glucose uptake with addition of insulin: day 3 to day 8, 100 nM insulin for 30 minutes
Protocol: To examine glucose uptake, 3T3L1 cells were treated on day 3 of differentiation with either 2-(3,5-dioxo-4-azatricyclo[5.2.1.0(2,6)]dec-8-en-4-yl)-4-methylpentanoic acid or 4-[(3,4-dichlorophenyl)amino]-3-(3-methylbenzyl)-4-oxobutanoic acid at 500 nM concentration and maintained in culture up to day 8 when the cells mature into adipocytes with well-developed lipid bodies. After 100 nM insulin was added to cells and maintained for 30 minutes, [3-H]-deoxy-2-D-Glucose uptake was measured.

Row | Compound | mRNA levels of sortilin (RT-PCR) (sortilin mRNA) | sortilin expression (western blot, anti-sortilin antibody) (sortilin) | glucose uptake (3T3L1 cells) | glucose uptake with addition of insulin (3T3L1 cells)
1 | CC(C)CC(C(=O)O)N1C(=O)C2C3C=CC(C3)C2C1=O (centres unmarked) [2-(3,5-dioxo-4-azatricyclo[5.2.1.0(2,6)]dec-8-en-4-yl)-4-methylpentanoic acid] | not affected | increase in sortilin expression | increase in glucose uptake | further increased
2 | Cc1cccc(CC(CC(=O)O)C(=O)Nc2ccc(Cl)c(Cl)c2)c1 (centres unmarked) [4-[(3,4-dichlorophenyl)amino]-3-(3-methylbenzyl)-4-oxobutanoic acid] | not affected | increase in sortilin expression | increase in glucose uptake | further increased
